# Data published in PubChem BioAssay (NCI).
#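 Cultured in 96-well plates, cells were exposed to test compound for 48 hours across five concentrations. GI50 = concentration required for 50% inhibition of growth. TGI is the concentration that stops growth completely.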
# Key:
# Experiment in all cases: inhibition of tumour cell growth, NCI panel, 48 h
# 786-0 renal = test system: 786-0 renal
# A498 renal = test system: A498 renal
# A549 NSCLC = test system: A549 NSCLC
# ACHN renal = test system: ACHN renal
# CAKI-1 renal = test system: CAKI-1 renal
# CCRF-CEM leukemia = test system: CCRF-CEM leukemia
# COLO 205 colon = test system: COLO 205 colon
# DLD-1 colon = test system: DLD-1 colon
# DMS 114 small cell lung = test system: DMS 114 small cell lung
# EKVX NSCLC = test system: EKVX NSCLC
# HCC-2998 colon = test system: HCC-2998 colon
# HCT-116 colon = test system: HCT-116 colon
# HCT-15 colon = test system: HCT-15 colon
# HL-60(TB) leukemia = test system: HL-60(TB) leukemia
# HOP-18 NSCLC = test system: HOP-18 NSCLC
# HOP-62 NSCLC = test system: HOP-62 NSCLC
# HOP-92 NSCLC = test system: HOP-92 NSCLC
# HT29 colon = test system: HT29 colon
# IGROV1 ovarian = test system: IGROV1 ovarian
# K-562 leukemia = test system: K-562 leukemia
# KM12 colon = test system: KM12 colon
# KM20L2 colon = test system: KM20L2 colon
# LOX IMVI melanoma = test system: LOX IMVI melanoma
# LXFL 529 NSCLC = test system: LXFL 529 NSCLC
# M14 melanoma = test system: M14 melanoma
# M19-MEL melanoma = test system: M19-MEL melanoma
# MALME-3M melanoma = test system: MALME-3M melanoma
# MOLT-4 leukemia = test system: MOLT-4 leukemia
# NCI-H226 lung = test system: NCI-H226 lung
# NCI-H23 lung = test system: NCI-H23 lung
# NCI-H460 lung = test system: NCI-H460 lung
# NCI-H522 lung = test system: NCI-H522 lung
# OVCAR-3 ovarian = test system: OVCAR-3 ovarian
# OVCAR-5 ovarian = test system: OVCAR-5 ovarian
# OVCAR-8 ovarian = test system: OVCAR-8 ovarian
# RPMI-8226 leukemia = test system: RPMI-8226 leukemia
# RXF 393 renal = test system: RXF 393 renal
# SF-268 CNS = test system: SF-268 CNS
# SF-295 CNS = test system: SF-295 CNS
# SF-539 CNS = test system: SF-539 CNS
# SK-MEL-28 melanoma = test system: SK-MEL-28 melanoma
# SK-MEL-5 melanoma = test system: SK-MEL-5 melanoma
# SK-OV-3 ovarian = test system: SK-OV-3 ovarian
# SN12C renal = test system: SN12C renal
# SNB-19 CNS = test system: SNB-19 CNS
# SNB-75 CNS = test system: SNB-75 CNS
# SR leukemia = test system: SR leukemia
# SW-620 colon = test system: SW-620 colon
# TK-10 renal = test system: TK-10 renal
# U251 CNS = test system: U251 CNS
# UACC-257 melanoma = test system: UACC-257 melanoma
# UACC-62 melanoma = test system: UACC-62 melanoma
# UO-31 renal = test system: UO-31 renal
# XF 498 CNS = test system: XF 498 CNS
# DMS 273 small cell lung = test system: DMS 273 small cell lung
# OVCAR-4 ovarian = test system: OVCAR-4 ovarian
# SK-MEL-2 melanoma = test system: SK-MEL-2 melanoma
# SNB-78 CNS = test system: SNB-78 CNS
structure (smiles),measurement,setting,value
O=C(CC1=Nc2nnc(CCCCCCCc3nnc4n3C(=O)C(CC(=O)c3ccccc3)=N4)n2C1=O)c1ccccc1,TGI,786-0 renal,> 100 µM
same,TGI,A498 renal,> 100 µM
same,TGI,A549 NSCLC,> 100 µM
same,TGI,ACHN renal,> 100 µM
same,TGI,CAKI-1 renal,> 100 µM
same,TGI,CCRF-CEM leukemia,> 100 µM
same,TGI,COLO 205 colon,> 100 µM
same,TGI,DLD-1 colon,> 100 µM
same,TGI,DMS 114 small cell lung,> 100 µM
same,TGI,EKVX NSCLC,> 100 µM
same,TGI,HCC-2998 colon,> 100 µM
same,TGI,HCT-116 colon,> 100 µM
same,TGI,HCT-15 colon,> 100 µM
same,TGI,HL-60(TB) leukemia,> 100 µM
same,TGI,HOP-18 NSCLC,> 100 µM
same,TGI,HOP-62 NSCLC,> 100 µM
same,TGI,HOP-92 NSCLC,> 100 µM
same,TGI,HT29 colon,> 100 µM
same,TGI,IGROV1 ovarian,> 100 µM
same,TGI,K-562 leukemia,> 100 µM
same,TGI,KM12 colon,> 100 µM
same,TGI,KM20L2 colon,> 100 µM
same,TGI,LOX IMVI melanoma,> 100 µM
same,TGI,LXFL 529 NSCLC,> 100 µM
same,TGI,M14 melanoma,> 100 µM
same,TGI,M19-MEL melanoma,> 100 µM
same,TGI,MALME-3M melanoma,> 100 µM
same,TGI,MOLT-4 leukemia,> 100 µM
same,TGI,NCI-H226 lung,> 100 µM
same,TGI,NCI-H23 lung,> 100 µM
same,TGI,NCI-H460 lung,> 100 µM
same,TGI,NCI-H522 lung,> 100 µM
same,TGI,OVCAR-3 ovarian,> 100 µM
same,TGI,OVCAR-5 ovarian,> 100 µM
same,TGI,OVCAR-8 ovarian,> 100 µM
same,TGI,RPMI-8226 leukemia,> 100 µM
same,TGI,RXF 393 renal,> 100 µM
same,TGI,SF-268 CNS,> 100 µM
same,TGI,SF-295 CNS,> 100 µM
same,TGI,SF-539 CNS,> 100 µM
same,TGI,SK-MEL-28 melanoma,> 100 µM
same,TGI,SK-MEL-5 melanoma,> 100 µM
same,TGI,SK-OV-3 ovarian,> 100 µM
same,TGI,SN12C renal,> 100 µM
same,TGI,SNB-19 CNS,> 100 µM
same,TGI,SNB-75 CNS,> 100 µM
same,TGI,SR leukemia,> 100 µM
same,TGI,SW-620 colon,> 100 µM
same,TGI,TK-10 renal,> 100 µM
same,TGI,U251 CNS,> 100 µM
same,TGI,UACC-257 melanoma,> 100 µM
same,TGI,UACC-62 melanoma,> 100 µM
same,TGI,UO-31 renal,> 100 µM
same,TGI,XF 498 CNS,> 100 µM
FC(F)(F)c1nnn[n-]1.[Au+].c1ccc([PH+](c2ccccc2)c2ccccc2)cc1,GI50,786-0 renal,1.84 µM
same,TGI,786-0 renal,3.55 µM
same,GI50,A549 NSCLC,19.3 µM
same,TGI,A549 NSCLC,62.3 µM
same,GI50,ACHN renal,4.63 µM
same,TGI,ACHN renal,9.84 µM
same,GI50,CAKI-1 renal,3.6 µM
same,TGI,CAKI-1 renal,14.2 µM
same,GI50,CCRF-CEM leukemia,0.449 µM
same,TGI,CCRF-CEM leukemia,2.91 µM
same,GI50,COLO 205 colon,2.62 µM
same,TGI,COLO 205 colon,6.94 µM
same,GI50,DLD-1 colon,1.95 µM
same,TGI,DLD-1 colon,5.04 µM
same,GI50,DMS 114 small cell lung,1.95 µM
same,TGI,DMS 114 small cell lung,15 µM
same,GI50,DMS 273 small cell lung,5.62 µM
same,TGI,DMS 273 small cell lung,54.7 µM
same,GI50,EKVX NSCLC,5.65 µM
same,TGI,EKVX NSCLC,10.4 µM
same,GI50,HCC-2998 colon,10.3 µM
same,TGI,HCC-2998 colon,22.3 µM
same,GI50,HCT-116 colon,12.4 µM
same,TGI,HCT-116 colon,24.9 µM
same,GI50,HCT-15 colon,2.19 µM
same,TGI,HCT-15 colon,6.92 µM
same,GI50,HL-60(TB) leukemia,0.161 µM
same,TGI,HL-60(TB) leukemia,0.42 µM
same,GI50,HOP-18 NSCLC,8.67 µM
same,TGI,HOP-18 NSCLC,20.5 µM
same,GI50,HOP-62 NSCLC,19.7 µM
same,TGI,HOP-62 NSCLC,34.2 µM
same,GI50,HOP-92 NSCLC,2.38 µM
same,TGI,HOP-92 NSCLC,4.59 µM
same,GI50,HT29 colon,4.25 µM
same,TGI,HT29 colon,13.2 µM
same,GI50,IGROV1 ovarian,2.69 µM
same,TGI,IGROV1 ovarian,13.2 µM
same,GI50,KM12 colon,13.2 µM
same,TGI,KM12 colon,42.5 µM
same,GI50,KM20L2 colon,6.74 µM
same,TGI,KM20L2 colon,16.6 µM
same,GI50,LOX IMVI melanoma,2.26 µM
same,TGI,LOX IMVI melanoma,7.64 µM
same,GI50,LXFL 529 NSCLC,1.48 µM
same,TGI,LXFL 529 NSCLC,2.82 µM
same,GI50,M14 melanoma,1.78 µM
same,TGI,M14 melanoma,4.37 µM
same,GI50,M19-MEL melanoma,2.74 µM
same,TGI,M19-MEL melanoma,15.7 µM
same,GI50,MALME-3M melanoma,1.58 µM
same,TGI,MALME-3M melanoma,3.35 µM
same,GI50,MOLT-4 leukemia,1.52 µM
same,TGI,MOLT-4 leukemia,4.09 µM
same,GI50,NCI-H226 lung,10.9 µM
same,TGI,NCI-H226 lung,26.3 µM
same,GI50,NCI-H23 lung,2.79 µM
same,TGI,NCI-H23 lung,9.11 µM
same,GI50,NCI-H460 lung,16.6 µM
same,TGI,NCI-H460 lung,50.4 µM
same,GI50,NCI-H522 lung,1.33 µM
same,TGI,NCI-H522 lung,2.81 µM
same,GI50,OVCAR-3 ovarian,2.89 µM
same,TGI,OVCAR-3 ovarian,7.49 µM
same,GI50,OVCAR-4 ovarian,2.09 µM
same,TGI,OVCAR-4 ovarian,6.67 µM
same,GI50,OVCAR-5 ovarian,16.1 µM
same,TGI,OVCAR-5 ovarian,30 µM
same,GI50,OVCAR-8 ovarian,2.77 µM
same,TGI,OVCAR-8 ovarian,9.18 µM
same,GI50,RPMI-8226 leukemia,1.41 µM
same,TGI,RPMI-8226 leukemia,4.63 µM
same,GI50,RXF 393 renal,1.52 µM
same,TGI,RXF 393 renal,3.11 µM
same,GI50,SF-268 CNS,4.2 µM
same,TGI,SF-268 CNS,13.1 µM
same,GI50,SF-295 CNS,11 µM
same,TGI,SF-295 CNS,41.3 µM
same,GI50,SF-539 CNS,5.18 µM
same,TGI,SF-539 CNS,19.4 µM
same,GI50,SK-MEL-2 melanoma,3.09 µM
same,TGI,SK-MEL-2 melanoma,10.8 µM
same,GI50,SK-MEL-28 melanoma,2.49 µM
same,TGI,SK-MEL-28 melanoma,7.35 µM
same,GI50,SK-MEL-5 melanoma,2 µM
same,TGI,SK-MEL-5 melanoma,7.15 µM
same,GI50,SK-OV-3 ovarian,15.6 µM
same,TGI,SK-OV-3 ovarian,29 µM
same,GI50,SN12C renal,6.34 µM
same,TGI,SN12C renal,16.4 µM
same,GI50,SNB-19 CNS,4.07 µM
same,TGI,SNB-19 CNS,13.6 µM
same,GI50,SNB-75 CNS,8.64 µM
same,TGI,SNB-75 CNS,22.1 µM
same,GI50,SNB-78 CNS,6.66 µM
same,TGI,SNB-78 CNS,> 62.7 µM
same,GI50,SR leukemia,1.3 µM
same,TGI,SR leukemia,3.65 µM
same,GI50,TK-10 renal,3.51 µM
same,TGI,TK-10 renal,9.27 µM
same,GI50,U251 CNS,3.04 µM
same,TGI,U251 CNS,11.1 µM
same,GI50,UACC-257 melanoma,1.82 µM
same,TGI,UACC-257 melanoma,7.43 µM
same,GI50,UACC-62 melanoma,2.17 µM
same,TGI,UACC-62 melanoma,10.7 µM
same,GI50,UO-31 renal,6.84 µM
same,TGI,UO-31 renal,16.7 µM
